In the experiment the test system is Aedes aegypti mosquitoes. The experiment in a line: Arm-in-cage testing of protective efficacy. Type of experiment: in vivo. The method, then: Additional testing was performed with the lotion of example 3 including sunflower oil, isopropyl alcohol, peppermint oil, citronella oil, zinc oxide, water and turmeric oil with the following protocols. Aedes aegypti mosquitoes were obtained from insecticide-susceptible reference strains held at the London School of Hygiene & Tropical Medicine, UK. All mosquitoes are reared and housed under optimal environmental conditions of 25° C.±2° C. and 80% Relative Humidity with a 12:12 hour photoperiod. Testing was carried out in a testing room maintained at […] with a 12:12 hour photoperiod. For each product, the same person carried out the arm-in-cage testing.
For each product test, three batches of 50 female mosquitoes were placed in cages inside the testing room. Before the start of each test a bare arm with gloved hand was inserted into the cage for 30 seconds to assess the biting readiness of the mosquitoes. […] The number of mosquitoes probing the untreated arm was counted at the end of the 30 second test.
Following the combined fitness/control test, the product was applied onto the right arm at the WHO standard rate of 1 ml per 600 cm 2 […] for DEET, and at a rate of 2 mg per cm′ for the Sunscreen Repellent. The arm was then inserted into the cage for 30 seconds and the number of mosquitoes probing on the arm counted and recorded. […]

Regarding `CCN(CC)C(=O)c1cccc(C)c1` [8% DEET], where the note is “time after application with 50% protection”, the “50% protective efficacy time” value was determined as 6 h. For the same molecule, the “complete (100%) protective efficacy time” value (time after application with 100% protection) worked out at 1 h.

For the origin of these results see patent US12648559B2, “Topical mosquito control product with sunscreen” (Pouch Pac Innovations, LLC, priority 2016, dated 2026).
